In patent publication US8252737B2, “Antimicrobial peptides and methods of use” (priority 2004, dated 2012):
Converted amounts (≈) assume the structure as drawn. Marks after values point to notes of the source that are not given here.

Assays:
[1] = system: Bacillus subtilis
[2] = system: Pseudomonas aeruginosa strains; details: for MIC GM: geometric mean of six Pseudomonas aeruginosa clinical isolates; for MIC CP 204: strain CP 204; for MIC M 2: strain M 2; for MIC PA 14: strain PA 14; for MIC PAK: strain PAK; for MIC PAO 1: strain PAO 1; for MIC WR 5: strain WR 5
Protocol: Pseudomonas aeruginosa strains used in this study are a diverse group of clinical isolates from different places in the world. […] The geometric mean MIC values from six Pseudomonas aeruginosa strains were calculated to provide an overall evaluation of antimicrobial activity of these peptides against Pseudomonas aeruginosa. Fold improvement was calculated by comparing the geometric mean MIC value of each peptide to that of the parent peptide V681.
(§1) Measurement of Antimicrobial Activity—Minimal inhibitory concentrations (MICs) were determined using a standard microtiter dilution method in LB (Luria-Bertani) no-salt medium (10 g of tryptone and 5 g of yeast extract per liter). Briefly, cells were grown overnight at 37° C. in LB and diluted in the same medium. […] Plates were incubated at 37° C. for 24 hours and MICs determined as the lowest peptide concentration that inhibited growth. Alternatively, minimal inhibitory concentrations were determined using a standard microtiter dilution method in a Mueller-Hinton (MH) medium. Briefly, cells were grown overnight at 37° C. in MH broth and diluted in the same medium. […] Plates were incubated at 37° C. for 24 hours and MICs determined as the lowest peptide concentration that inhibited growth. However, for MIC determination of Pseudomonas aeruginosa clinical isolates, brain heart infusion (BH1) medium was used instead of MH broth. In addition, the bacteria were diluted to a final inoculum of 1×10^6 colony-forming units/ml.
For the Leu-substituted peptides, the hemolytic activity against human erythrocytes was determined as the maximal peptide concentration that produces no hemolysis after 18 hours of incubation at 37° C. Antimicrobial activity of the peptides was determined on a diverse group of Pseudomonas aeruginosa clinical isolates. […] The geometric mean MIC values from six Pseudomonas strains in Table 14 were calculated to provide an overall evaluation of antimicrobial activity of the peptides with different hydrophobicities.

[3] = system: Staphylococcus epidermidis
[4] = system: C. albicans; details: fungus
Protocol: as §1

[5] = system: E. faecalis; details: wild type strain
Protocol: as §1

[6] = system: gram-positive bacteria; details: geometric mean of MIC values from all 6 gram-positive strains of Table 12
Protocol: as §1

[7] = system: Staphylococcus aureus
[8] = system: E. coli (UB 1005 wt and DC2 abs); details: for MIC (μg/ml) E. coli C500 abs: antibiotic sensitive strain; for MIC (μg/ml) E. coli C498 wt: wild-type lab strain
Protocol: (§2) The geometric mean MIC values from 6 microbial strains in this table were calculated to provide an overall evaluation of antimicrobial activity against gram-negative bacteria.
as §1

[9] = system: P. aeruginosa H187 wt; details: for MIC (μg/ml) Pa H188 abs: Pseudomonas aeruginosa antibiotic sensitive strain; for MIC (μg/ml) Pa H187 wt: Pseudomonas aeruginosa wild-type lab strain
Protocol: as §2, §1

[10] = system: S. typhimurium C610 abs; details: Salmonella typhimurium antibiotic sensitive strain
Protocol: as §2, §1

[11] = Salmonella typhimurium wild-type lab strain
Protocol: as §2, §1

[12] = system: gram-negative bacteria; experiment: MIC, microtiter dilution, Gram-negative bacteria (geometric mean of 6 strains); assay type: cell-based; details: geometric mean of MIC values from all 6 Gram-negative strains of Table 11
Protocol: as §2
In Table 11, geometric mean MIC was calculated to provide an overall view of antimicrobial activity of the peptides against Gram-negative bacteria and was also used to calculate the therapeutic index.
as §1

[13] = system: human erythrocytes; experiment: Hemolytic activity (MHC), Protocol B, 18 hours; details: for Hemolytic activity Fold: fold decrease in hemolytic activity compared to V681, 18 hours; for Hemolytic activity MHC: maximal peptide concentration producing no hemolysis after 18 hours, 37° C.; for MHC (μg/ml) hRBC: maximal peptide concentration with no hemolysis after 18 hours
Protocol: In order to evaluate the biological activities of the D-enantiomeric peptides, namely D-NAL and D-NKD, the hemolytic activity of the peptides against human erythrocytes was determined as the maximal peptide concentration that produces no hemolysis after 18 hours of incubation at 37° C.
(§3) Measurement of Hemolytic Activity—Protocol A: Peptide samples were added to 1% human erythrocytes in phosphate buffered saline (0.08M NaCl; 0.043M Na2PO4; 0.011M KH2PO4) and reactions were incubated at 37° C. for 12 hours in microtiter plates. Peptide samples were diluted 2 fold in order to determine the concentration that produced no hemolysis. […] Hemoglobin release was determined spectrophotometrically at 562 nm. The hemolytic titer was the highest 2-fold dilution of the peptide that still caused release of hemoglobin from erythrocytes. The control for no release of hemoglobin was a sample of 1% erythrocytes without any peptide added. […] Peptide samples were diluted 2 fold in order to determine the concentration that produced no hemolysis. […] Hemoglobin release was determined spectrophotometrically at 570 nm. The hemolytic titer was the highest 2-fold dilution of the peptide that still caused release of hemoglobin from erythrocytes. The control for no release of hemoglobin was a sample of 1% erythrocytes without any peptide added.

[14] = system: human red blood cells; experiment: Hemolysis time study (0-8 hours, 8-500 μg/ml)
Protocol: The percent hemolysis of cells was determined spectrophotometrically by comparison with the complete hemolysis of cells in water.
as §3, with “Measurement of Hemolytic Activity—Protocol A: Peptide samples were added to 1% human erythrocytes in phosphate buffered saline (0.08M NaCl; 0.043M Na2PO4; 0.011M KH2PO4) and reactions were incubated at 37° C. for 12 hours in microtiter plates.” left out

[15] = system: Corynebacterium xerosis

| SMILES | MIC (μg/ml) B. subtilis C971 wt [1] [µg/mL] | MIC GM [2] [µg/mL] | MIC CP 204 [2] [µg/mL] | MIC M 2 [2] [µg/mL] | MIC PA 14 [2] [µg/mL] | MIC PAK [2] [µg/mL] | MIC PAO 1 [2] [µg/mL] | MIC WR 5 [2] [µg/mL] | MIC (μg/ml) S. epidermidis C621 wt [3] [µg/mL] | MIC (μg/ml) C. albicans [4] [µg/mL] | MIC (μg/ml) E. faecalis C625 wt [5] [µg/mL] | MIC (μg/ml) GM [6] [µg/mL] | MIC (μg/ml) S. aureus 622 wt [7] [µg/mL] | MIC (μg/ml) S. aureus 623 methR [7] [µg/mL] | MIC (μg/ml) E. coli C500 abs [8] [µg/mL] | MIC (μg/ml) E. coli C498 wt [8] [µg/mL] | MIC (μg/ml) Pa H188 abs [9] [µg/mL] | MIC (μg/ml) Pa H187 wt [9] [µg/mL] | MIC (μg/ml) St C610 abs [10] [µg/mL] | MIC (μg/ml) St C587 wt [11] [µg/mL] | also measured |
| --- | --- | --- | --- | --- | --- | --- | --- | --- | --- | --- | --- | --- | --- | --- | --- | --- | --- | --- | --- | --- | --- |
| CC[C@@H](C)[C@@H](NC(=O)[C@@H](C)NC(=O)[C@@H](CCCCN)NC(=O)[C@@H](CC(C)C)NC(=O)[C@@H](C)NC(=O)[C@H](NC(=O)[C@@H](Cc1c[nH]cn1)NC(=O)[C@@H](CC(C)C)NC(=O)[C@H](NC(=O)[C@H](NC(=O)[C@@H](CCCCN)NC(=O)[C@H](C)NC(=O)[C@@H](C)NC(=O)[C@@H](CO)NC(=O)[C@@H](CCCCN)NC(=O)[C@@H](Cc1ccccc1)NC(=O)[C@H](NC(=O)[C@@H](CCCCN)NC(=O)[C@@H](CC(C)C)NC(=O)[C@@H](Cc1ccccc1)NC(=O)[C@@H](CO)NC(=O)[C@@H](CCCCN)NC(=O)[C@@H](Cc1c[nH]c2ccccc12)NC(=O)[C@@H](CCCCN)NC(C)=O)[C@H](C)O)[C@H](C)O)C(C)C)[C@H](C)O)C(=O)N[C@H](CO)C(=O)N[C@H](CO)C(N)=O [D-NAL] | 1.6 (≈ 0.545 µM) | 13.9 (≈ 4.74 µM) | 7.8 (≈ 2.66 µM) | 15.6 (≈ 5.32 µM) | 7.8 (≈ 2.66 µM) | 31.3 (≈ 10.7 µM) | 7.8 (≈ 2.66 µM) | 31.3 (≈ 10.7 µM) | 1.6 (≈ 0.545 µM) | 12.5 (≈ 4.26 µM) | 12.5 (≈ 4.26 µM) | 2.8 (≈ 0.954 µM) | 3.1 (≈ 1.06 µM) | 3.1 (≈ 1.06 µM) | 3.1 (≈ 1.06 µM) | 3.1 (≈ 1.06 µM) | 3.1 (≈ 1.06 µM) | 3.1 (≈ 1.06 µM) | 3.1 (≈ 1.06 µM) | 12.5 (≈ 4.26 µM) | MIC (μg/ml) GM [12]: 3.9 µg/mL (≈ 1.33 µM); Hemolytic activity Fold [13]: 4; Hemolytic activity MHC [13]: 31.3 µg/mL; MHC (μg/ml) hRBC ([13]; Table 11): 31.3 µg/mL; MHC (μg/ml) hRBC ([13]; Table 12): 31.3 µg/mL; hemolysis of human red blood cells ([14]; 500 μg/ml, after 1 hour incubation): approximately 40%; hemolysis of human red blood cells ([14]; peptide concentration of 32 μg/ml): negligible hemolysis; MIC (μg/ml) C. xerosis C875 wt [15]: 1.6 µg/mL (≈ 0.545 µM) |
| CC[C@@H](C)[C@@H](NC(=O)[C@@H](C)NC(=O)[C@@H](CCCCN)NC(=O)[C@@H](CC(C)C)NC(=O)[C@@H](C)NC(=O)[C@H](NC(=O)[C@@H](Cc1c[nH]cn1)NC(=O)[C@@H](CC(C)C)NC(=O)[C@H](NC(=O)[C@H](NC(=O)[C@@H](CCCCN)NC(=O)[C@@H](CCCCN)NC(=O)[C@@H](C)NC(=O)[C@@H](CO)NC(=O)[C@@H](CCCCN)NC(=O)[C@@H](Cc1ccccc1)NC(=O)[C@H](NC(=O)[C@@H](CCCCN)NC(=O)[C@@H](CC(C)C)NC(=O)[C@@H](Cc1ccccc1)NC(=O)[C@@H](CO)NC(=O)[C@@H](CCCCN)NC(=O)[C@@H](Cc1c[nH]c2ccccc12)NC(=O)[C@@H](CCCCN)NC(C)=O)[C@H](C)O)[C@H](C)O)C(C)C)[C@H](C)O)C(=O)N[C@H](CO)C(=O)N[C@H](CO)C(N)=O [D-NKD] | 1.6 (≈ 0.535 µM) | 31.2 (≈ 10.4 µM) | 15.6 (≈ 5.22 µM) | 31.3 (≈ 10.5 µM) | 15.6 (≈ 5.22 µM) | 125.0 (≈ 41.8 µM) | 15.6 (≈ 5.22 µM) | 62.5 (≈ 20.9 µM) | 3.1 (≈ 1.04 µM) | 25.0 (≈ 8.36 µM) | 12.5 (≈ 4.18 µM) | 4.0 (≈ 1.34 µM) | 6.3 (≈ 2.11 µM) | 6.3 (≈ 2.11 µM) | 3.1 (≈ 1.04 µM) | 3.1 (≈ 1.04 µM) | 3.1 (≈ 1.04 µM) | 6.3 (≈ 2.11 µM) | 3.1 (≈ 1.04 µM) | 6.3 (≈ 2.11 µM) | MIC (μg/ml) GM [12]: 3.9 µg/mL (≈ 1.3 µM); Hemolytic activity Fold [13]: 32; Hemolytic activity MHC [13]: 250.0^h μg/ml; MHC (μg/ml) hRBC ([13]; Table 11): 250.0^h μg/ml; MHC (μg/ml) hRBC ([13]; Table 12): 250.0^h μg/ml; MIC (μg/ml) C. xerosis C875 wt [15]: 1.6 µg/mL (≈ 0.535 µM) |
